Experimental data reported in US12264134B2 (Merck Sharp & Dohme LLC, priority 2018, dated 2025).
Structures can show the parent of a compound that is named as a salt.

How the values were obtained:
[1] = molecular target: T1, IDO1 (Homo sapiens, UniProt P14902); assay: IDO1 Cellular Assay in HeLa Cells Stimulated with IFNγ; type: cell-based; details: read-out: HeLa Cell Potency, IC50
[2] = molecular target: T1, IDO1; assay: IDO1 Human Whole blood Assay; type: cell-based; design: Human whole blood was drawn in sodium heparin coated tubes from healthy internal donors; from tissue; host or cells: human whole blood from healthy donors, stimulated with LPS and IFNγ; details: LPS and IFNγ stimulated, 18 h, read-out: Human Whole Blood Potency, IC50
Method in brief: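 LC/MS/MS of kynurenine, normalized to spiked isotope-labeled standard (3 μM final), served as the readout. Beforehand, fresh human blood with compound (15 min preincubation) was stimulated overnight (18 h, 37 °C) with 100 ng/mL LPS/IFNγ. IC50 was obtained by four-parameter curve fitting.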

T1 sequence (P14902 whole entry): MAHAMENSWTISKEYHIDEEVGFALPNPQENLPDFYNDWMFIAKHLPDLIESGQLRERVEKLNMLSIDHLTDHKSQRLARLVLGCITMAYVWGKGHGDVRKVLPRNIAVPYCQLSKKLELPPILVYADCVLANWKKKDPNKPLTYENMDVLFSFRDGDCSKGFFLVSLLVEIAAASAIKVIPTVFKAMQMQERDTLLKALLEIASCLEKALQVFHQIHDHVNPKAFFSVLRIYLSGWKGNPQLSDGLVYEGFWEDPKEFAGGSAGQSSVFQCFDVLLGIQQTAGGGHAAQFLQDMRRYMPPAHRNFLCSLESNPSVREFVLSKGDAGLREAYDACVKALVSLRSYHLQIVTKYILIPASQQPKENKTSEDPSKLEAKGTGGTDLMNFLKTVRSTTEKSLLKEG

SMILES | IC50 [1] | IC50 [2]
Cc1cccc(N2CCN(C(=O)Cn3nc(C(=O)N4CCC(O)(CO)CC4)c4c3CCC4)CC2)c1C [Example 141, 1-[4-(2,3-dimethylphenyl)piperazin-1-yl]-2-{3-[4-hydroxy-4-(hydroxymethyl)piperidine-1-carbonyl]-5,6-dihydrocyclopenta[c]pyrazol-1(4H)-yl}ethan-1-one] | 11.3 nM | 360 nM
Cc1cccc(N2CCN(C(=O)Cn3nc(C(=O)N4CCC(c5cn[nH]c5)CC4)c4c3CCC4)CC2)c1C [Example 142, 1-[4-(2,3-dimethylphenyl)piperazin-1-yl]-2-{3-[4-(1H-pyrazol-4-yl)piperidine-1-carbonyl]-5,6-dihydrocyclopenta[c]pyrazol-1(4H)-yl}ethan-1-one] | 1.29 nM | 48 nM
Cc1cccc(N2CCN(C(=O)Cn3nc(C(=O)N4CCC5(CCOC5=O)CC4)c4c3CCC4)CC2)c1C [Example 146, 8-(1-{2-[4-(2,3-dimethylphenyl)piperazin-1-yl]-2-oxoethyl}-1,4,5,6-tetrahydrocyclopenta[c]pyrazole-3-carbonyl)-2-oxa-8-azaspiro[4.5]decan-1-one] | 2.39 nM | 150 nM
Cc1cccc(N2CCN(C(=O)Cn3nc(C(=O)N4CCCC(CO)C4)c4c3CCC4)CC2)c1C (stereo not drawn) [Example 147, 1-[4-(2,3-dimethylphenyl)piperazin-1-yl]-2-{3-[3-(hydroxymethyl)piperidine-1-carbonyl]-5,6-dihydrocyclopenta[c]pyrazol-1(4H)-yl}ethan-1-one] | 2.84 nM | 607 nM
Cc1cccc(N2CCN(C(=O)Cn3nc(C(=O)N4CCN(CC(F)F)CC4)c4c3CCC4)CC2)c1C [Example 157, 2-{3-[4-(2,2-difluoroethyl)piperazine-1-carbonyl]-5,6-dihydrocyclopenta[c]pyrazol-1(4H)-yl}-1-[4-(2,3-dimethylphenyl)piperazin-1-yl]ethan-1-one] | 3.34 nM | 196 nM
Cc1cccc(N2CCN(C(=O)Cn3nc(C(=O)N4CCN(CC(F)(F)F)CC4)c4c3CCC4)CC2)c1C [Example 158, 1-[4-(2,3-dimethylphenyl)piperazin-1-yl]-2-{3-[4-(2,2,2-trifluoroethyl)piperazine-1-carbonyl]-5,6-dihydrocyclopenta[c]pyrazol-1(4H)-yl}ethan-1-one] | 3.06 nM | 375 nM
Cc1cccc(N2CCN(C(=O)Cn3nc(C(=O)N4CCC(C)(CO)CC4)c4c3CCC4)CC2)c1C [Example 161, 1-[4-(2,3-dimethylphenyl)piperazin-1-yl]-2-{3-[4-(hydroxymethyl)-4-methylpiperidine-1-carbonyl]-5,6-dihydrocyclopenta[c]pyrazol-1(4H)-yl}ethan-1-one] | 2.42 nM | 113 nM
Cc1cccc(N2CCN(C(=O)Cn3nc(C(=O)N4CCN(CC(N)=O)CC4)c4c3CCC4)CC2)c1C [Example 165, 2-[4-(1-{2-[4-(2,3-dimethylphenyl)piperazin-1-yl]-2-oxoethyl}-1,4,5,6-tetrahydrocyclopenta[c]pyrazole-3-carbonyl)piperazin-1-yl]acetamide] | 8.85 nM | 79 nM
Cc1cccc(N2CCN(C(=O)Cn3nc(C(=O)N4CCN(C5COC5)CC4)c4c3CCC4)CC2)c1C [Example 168, 1-[4-(2,3-dimethylphenyl)piperazin-1-yl]-2-{3-[4-(oxetan-3-yl)piperazine-1-carbonyl]-5,6-dihydrocyclopenta[c]pyrazol-1(4H)-yl}ethan-1-one] | 5.88 nM | 441 nM
COCCN1[C@H](C)CN(C(=O)c2nn(CC(=O)N3CCN(c4cccc(C)c4C)CC3)c3c2CCC3)C[C@@H]1C [Example 172, 1-[4-(2,3-dimethylphenyl)piperazin-1-yl]-2-{3-[(3R,5S)-4-(2-methoxyethyl)-3,5-dimethylpiperazine-1-carbonyl]-5,6-dihydrocyclopenta[c]pyrazol-1(4H)-yl}ethan-1-one] | 6.12 nM | 1240 nM
Cc1cccc(N2CCN(C(=O)Cn3nc(C(=O)N4CCN5CCOC[C@H]5C4)c4c3CCC4)CC2)c1C [Example 173, 1-[4-(2,3-dimethylphenyl)piperazin-1-yl]-2-{3-[(9aR)-hexahydropyrazino[2,1-c][1,4]oxazine-8(1H)-carbonyl]-5,6-dihydrocyclopenta[c]pyrazol-1(4H)-yl}ethan-1-one] | 7.66 nM | 1670 nM
Cc1cccc(N2CCN(C(=O)Cn3nc(C(=O)N4CCN5CCOC[C@@H]5C4)c4c3CCC4)CC2)c1C [Example 174, 1-[4-(2,3-dimethylphenyl)piperazin-1-yl]-2-{3-[(9aS)-hexahydropyrazino[2,1-c][1,4]oxazine-8(1H)-carbonyl]-5,6-dihydrocyclopenta[c]pyrazol-1(4H)-yl}ethan-1-one] | 3.75 nM | 480 nM
Cc1cccc(N2CCN(C(=O)Cn3nc(C(=O)N4CCC5(CC4)COCC5O)c4c3CCC4)CC2)c1C (stereo not drawn) [Example 181, 1-[4-(2,3-dimethylphenyl)piperazin-1-yl]-2-[3-(4-hydroxy-2-oxo-8-azaspiro[4.5]decane-8-carbonyl)-5,6-dihydrocyclopenta[c]pyrazol-1(4H)-yl]ethan-1-one] | 3.3 nM | 125 nM
Cc1cccc(N2CCN(C(=O)Cn3nc(C(=O)N4CCC(O)(C(F)F)CC4)c4c3CCC4)CC2)c1C [Example 192, 2-{3-[4-(difluoromethyl)-4-hydroxypiperidine-1-carbonyl]-5,6-dihydrocyclopenta[c]pyrazol-1(4H)-yl}-1-[4-(2,3-dimethylphenyl)piperazin-1-yl]ethan-1-one] | 1.64 nM | 196 nM

Results, then the molecule that gave them:

IC50 [1] | IC50 [2] | SMILES
1.65 nM | 209 nM | Cc1cccc(N2CCN(C(=O)Cn3nc(C(=O)N4CCC(CCO)CC4)c4c3CCC4)CC2)c1C [Example 160, 1-[4-(2,3-dimethylphenyl)piperazin-1-yl]-2-{3-[4-(2-hydroxyethyl)piperidine-1-carbonyl]-5,6-dihydrocyclopenta[c]pyrazol-1(4H)-yl}ethan-1-one]
7.88 nM | 189 nM | Cc1cccc(N2CCN(C(=O)Cn3nc(C(=O)N4CCN(C)[C@H](C)C4)c4c3CCC4)CC2)c1C [Example 167, 1-[4-(2,3-dimethylphenyl)piperazin-1-yl]-2-{3-[(3R)-3,4-dimethylpiperazine-1-carbonyl]-5,6-dihydrocyclopenta[c]pyrazol-1(4H)-yl}ethan-1-one]
13 nM | 278 nM | Cc1cccc(N2CCN(C(=O)Cn3nc(C(=O)N4CC[C@H](N)[C@@H](F)C4)c4c3CCC4)CC2)c1C [Example 203, [(3S,4S)-1-[1-[2-[4-(2,3-dimethylphenyl)piperazin-1-yl]-2-oxo-ethyl]-5,6-dihydro-4H-cyclopenta[c]pyrazole-3-carbonyl]-3-fluoro-4-piperidyl]ammonium; formate]
1.06 nM | 224 nM | CC(=O)NC1CCN(C(=O)c2nn(CC(=O)N3CCN(c4cccc(C)c4C)CC3)c3c2[C@@H]2C[C@@H]2C3)CC1 [Example 229, N-{1-[(3bR,4aR)-1-{2-[4-(2,3-dimethylphenyl)piperazin-1-yl]-2-oxoethyl}-3b,4,4a,5-tetrahydro-1H-cyclopropa[3,4]cyclopenta[1,2-c]pyrazole-3-carbonyl]piperidin-4-yl}acetamide]
1.13 nM | 801 nM | Cc1cccc(N2CCN(C(=O)Cn3nc(C(=O)N4CC[C@@H](C(C)(C)O)C4)c4c3C[C@H]3C[C@@H]43)CC2)c1C [Example 230, 1-[4-(2,3-dimethylphenyl)piperazin-1-yl]-2-{(3bR,4aR)-3-[(3R)-3-(2-hydroxypropan-2-yl)pyrrolidine-1-carbonyl]-3b,4,4a,5-tetrahydro-1H-cyclopropa[3,4]cyclopenta[1,2-c]pyrazol-1-yl}ethan-1-one]
3.61 nM | 273 nM | Cc1cccc(N2CCN(C(=O)Cn3nc(C(=O)N4C[C@@H](C)N[C@@H](C)C4)c4c3C[C@H]3C[C@@H]43)CC2)c1C [Example 234, 1-[4-(2,3-dimethylphenyl)piperazin-1-yl]-2-{(3bR,4aR)-3-[(3R,5S)-3,5-dimethylpiperazine-1-carbonyl]-3b,4,4a,5-tetrahydro-1H-cyclopropa[3,4]cyclopenta[1,2-c]pyrazol-1-yl}ethan-1-one]
3.1 nM | 339 nM | Cc1cccc(N2CCN(C(=O)Cn3nc(C(=O)N4C[C@@H](C)N(C)[C@@H](C)C4)c4c3C[C@H]3C[C@@H]43)CC2)c1C [Example 235, 1-[4-(2,3-dimethylphenyl)piperazin-1-yl]-2-{(3bR,4aR)-3-[(3R,5S)-3,4,5-trimethylpiperazine-1-carbonyl]-3b,4,4a,5-tetrahydro-1H-cyclopropa[3,4]cyclopenta[1,2-c]pyrazol-1-yl}ethan-1-one]
8.43 nM | 5050 nM | Cc1cccc(N2CCN(C(=O)Cn3nc(C(=O)N4CCC(O)(CN)CC4)c4c3C[C@H]3C[C@@H]43)CC2)c1C [Example 238, 2-{(3bR,4aR)-3-[4-(aminomethyl)-4-hydroxypiperidine-1-carbonyl]-3b,4,4a,5-tetrahydro-1H-cyclopropa[3,4]cyclopenta[1,2-c]pyrazol-1-yl}-1-[4-(2,3-dimethylphenyl)piperazin-1-yl]ethan-1-one]
0.91 nM | 91 nM | Cc1cccc(N2CCN(C(=O)Cn3nc(C(=O)N4CCN(CCO)CC4)c4c3C[C@H]3C[C@@H]43)CC2)c1C [Example 247]
2.03 nM | 109 nM | Cc1cccc(N2CCN(C(=O)Cn3nc(C(=O)N4CCC(O)(CF)CC4)c4c3C[C@H]3C[C@@H]43)CC2)c1C [Example 276, 1-[4-(2,3-dimethylphenyl)piperazin-1-yl]-2-{(3bR,4aR)-3-[4-(fluoromethyl)-4-hydroxypiperidine-1-carbonyl]-3b,4,4a,5-tetrahydro-1H-cyclopropa[3,4]cyclopenta[1,2-c]pyrazol-1-yl}ethan-1-one]
